Two compounds from paper PMC11219871, “Epigenetic-based differentiation therapy for Acute Myeloid Leukemia” (Nature Communications, 2024) can be followed below.

The target of one series is T1, HDAC9 (Homo sapiens, UniProt Q9UKV0).
T1 construct: purchased Eurofins (contracted assay service)
Kind of series: HDAC assay (Eurofins). The format is biochemical.

The next series concerns the target T2, HDAC11 (Homo sapiens, UniProt Q96DB2).
T2 sequence (Q96DB2 1-347): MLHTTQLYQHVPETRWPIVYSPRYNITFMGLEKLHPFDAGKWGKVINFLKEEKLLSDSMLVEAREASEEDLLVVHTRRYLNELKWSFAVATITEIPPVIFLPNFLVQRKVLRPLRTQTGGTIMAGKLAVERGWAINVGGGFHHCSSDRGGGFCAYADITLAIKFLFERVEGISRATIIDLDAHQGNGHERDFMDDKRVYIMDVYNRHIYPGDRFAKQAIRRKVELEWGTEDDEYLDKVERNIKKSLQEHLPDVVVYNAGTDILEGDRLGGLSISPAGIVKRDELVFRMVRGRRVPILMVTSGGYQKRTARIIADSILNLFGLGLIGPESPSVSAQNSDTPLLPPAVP
Kind of series: HDAC11 Eurofins assay. Type of series: biochemical.

In series [1] the test system is LINE-1 DNA methylation in ML-2. Nature of the series: LINE-1 pyrosequencing. Type of series: cell-based, human.
For series [2], the system named is global 5-methylcytosine levels in HL-60, ML-2, MV4-11 and MOLM-13 cell lines. Kind of series: Dot blot. Type of series: cell-based, human. The note with it: HL-60, 270 nM CM-444 or 300 nM CM-1758, 48 h. The method, then:
DNA purity and concentration were measured using a NanoDrop spectrophotometer (Thermo Scientific). A 500 ng amount of genomic DNA was loaded onto a nitrocellulose membrane (Amersham Hybond_N+, RPN203B, GE Healthcare), pre-wetted in 6X SSC for 10 min, using the Bio-Dot microfiltration apparatus (Cat No 170-6545, Bio-Rad) following the manufacturer’s instructions. Next, the membrane was incubated with 2X SSC for 5 min and cross-linked for 2 h at 80 °C. The membrane, after being blocked with Tropix I-block blocking reagent (Cat No AI300, Tropix) in PBS with 0.1% Tween 20 and 0.02 NaN3, was incubated with the primary antibody against 5-methylcytosine (monoclonal antibody 5-methylcytidine, Cat No BI-MECY-1000, Eurogentec) diluted 1:4000 o/n at 4 °C and then with alkaline phosphatase-conjugated secondary antibody. […] To ensure equal loading of total DNA on the membrane, the same blot was stained with 0.02% methylene blue in 0.3 M sodium acetate (pH 5.2).

Series [3] deals with HL-60, ML-2, MOLM-13 and MV4-11. Nature of the series: γ-H2AX immunofluorescence (DNA damage). The format is cell-based. To be noted: daily treatment 48 hours, four AML cell lines.
Method: authors should analyze this e.g by gH2AX immunofluorescence staining.
As positive control, HL-60 cells irradiated with an acute dose of 30 J/m2 UV for 2 minutes were
(see Reviewer Figure 22).
A short description of series [4]: Plasma protein binding (equilibrium dialysis). Type of series: in vitro ADME. The note with it: pH 7.4, Human. The method, then:
This study was conducted by Equilibrium Dialysis at Wuxi (http://www.wuxi.com/). HT Dialysis plate (Model HTD 96 b, Cat# 1006) and the dialysis membrane (molecular weight cutoff of 12–14 kDa, Cat# 1101) were purchased from HT Dialysis LLC (Gales Ferry, CT). Human plasma (BioIVT, # […]2P2N) and CD-1 mouse plasma (Beijing Vital River Laboratory Animal Technology Co., Ltd.) were thawed prior to experiments under running cold tap water and centrifuged at 3320 × g for 5 min to remove any clots, and the pH was checked. Only plasma from pH 7.0 to 8.0 was used. The dialysis membrane was pretreated according to the manufacturer’s instructions. Test compounds and warfarin (control) were assayed at a final concentration of 2 μM. Aliquots of 50 μL loading plasma (matrix) containing test or control compound in triplicate were transferred to Sample Collection Plates, respectively. The samples were matched with opposite blank buffer to obtain a final volume of 100 μL with a volume ratio of plasma (matrix) to dialysis buffer (1:1, v-v) in each well immediately. […] Concentrations of test compounds in the starting solution (before dialysis), the plasma side of the membrane, and the buffer side of the membrane were quantified by LC-MS/MS using a peak area ratio of analyte/internal standard. The fraction of unbound, bound, and recovery were calculated. […]

Where “and” joins values, the source holds several entries; their conditions need not be identical. Equal values may be shown once.

T1 sequence (Q9UKV0 whole entry): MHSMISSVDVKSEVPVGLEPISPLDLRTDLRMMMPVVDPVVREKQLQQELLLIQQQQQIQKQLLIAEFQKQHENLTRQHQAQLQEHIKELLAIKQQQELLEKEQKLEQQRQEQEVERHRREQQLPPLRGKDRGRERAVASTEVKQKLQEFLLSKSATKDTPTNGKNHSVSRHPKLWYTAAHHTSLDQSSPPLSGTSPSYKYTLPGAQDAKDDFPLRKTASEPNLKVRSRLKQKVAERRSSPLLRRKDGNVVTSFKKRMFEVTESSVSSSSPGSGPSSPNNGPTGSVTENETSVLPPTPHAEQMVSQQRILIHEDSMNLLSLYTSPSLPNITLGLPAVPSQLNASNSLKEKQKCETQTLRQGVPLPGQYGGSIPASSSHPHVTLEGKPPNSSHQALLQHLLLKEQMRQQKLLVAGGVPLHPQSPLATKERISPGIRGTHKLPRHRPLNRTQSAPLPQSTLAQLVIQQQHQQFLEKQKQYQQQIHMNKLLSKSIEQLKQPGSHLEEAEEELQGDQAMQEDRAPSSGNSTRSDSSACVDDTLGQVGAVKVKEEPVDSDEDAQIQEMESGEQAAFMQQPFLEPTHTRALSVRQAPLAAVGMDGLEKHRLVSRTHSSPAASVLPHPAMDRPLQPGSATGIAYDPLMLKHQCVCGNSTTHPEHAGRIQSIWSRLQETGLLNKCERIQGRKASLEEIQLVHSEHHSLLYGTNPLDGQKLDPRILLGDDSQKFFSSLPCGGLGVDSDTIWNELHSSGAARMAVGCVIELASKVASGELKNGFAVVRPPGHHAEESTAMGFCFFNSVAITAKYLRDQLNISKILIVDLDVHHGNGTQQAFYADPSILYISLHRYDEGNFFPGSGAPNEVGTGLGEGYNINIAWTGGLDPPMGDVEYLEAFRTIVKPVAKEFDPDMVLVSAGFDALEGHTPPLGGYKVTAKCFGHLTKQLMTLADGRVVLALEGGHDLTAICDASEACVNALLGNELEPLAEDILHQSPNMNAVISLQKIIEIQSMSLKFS

With `COc1cc2nc(-c3cc(C)oc3C)cc(NCC3CCN(c4ncc(C(=O)NO)cn4)CC3)c2cc1OC` [CM-1758, 2-[4-[[[2-(2,5-dimethyl-3-furyl)-6,7-dimethoxy-4-quinolyl]amino]methyl] -1-piperidyl]pyrimidine-5-carbohydroxamic acid], on HDAC9, the IC50 was 92 nM and the inhibition at 10 µM was 97%. For the same compound, on HDAC11, inhibition was half-maximal at 150 nM (IC50). In addition, in series [1] (ML-2, 48 hours), the “LINE-1 methylation (%) CG Position 1” value is 70% and 68%; the “LINE-1 methylation (%) CG Position 2” value was 72% and 74%; the “LINE-1 methylation (%) CG Position 3” value is 78% and 80%; the “LINE-1 methylation (%) CG Position 4” value was 85% and 89%. The “LINE-1 methylation (%) CG Position 5” value in series [1] (ML-2, 48 hours) is 59% and 61%. Further, in series [1] (ML-2, 10 days), the “LINE-1 methylation (%) CG Position 1” value came out at 60%; the “LINE-1 methylation (%) CG Position 2” value was 54% and 50%; the “LINE-1 methylation (%) CG Position 3” value was 61% and 63%; the “LINE-1 methylation (%) CG Position 4” value is 73% and 65%. Moreover, the “LINE-1 methylation (%) CG Position 5” value in series [1] (ML-2, 10 days) is 43% and 39%. For the same compound, in series [2], the “5mC level (dot blot)” value is listed as “no changes”. Moreover, the “DNA damage (γ-H2AX)” value in series [3] is on record as “do not induced DNA damage”. In series [4], this compound gave a fraction unbound at 4 h, 2 µM of 0.01.
On HDAC9, `COc1cc2nc(-c3ccc(C)o3)cc(NCC3CCN(c4ncc(C(=O)NO)cn4)CC3)c2cc1OC` [CM-444, 2-[4-[[[6,7-dimethoxy-2-(5-methyl-2-furyl)-4-quinolyl]amino]methyl]-1-piperidyl]pyrimidine-5-carbohydroxamic acid] yielded a concentration for half-maximal inhibition (IC50) of 90 nM and an inhibition at 10 µM of 98%. Further, at HDAC11, inhibition was half-maximal at 140 nM (IC50). In series [1] (ML-2, 48 hours), the “LINE-1 methylation (%) CG Position 1” value was 65% and 67%; the “LINE-1 methylation (%) CG Position 2” value is given as 73%; the “LINE-1 methylation (%) CG Position 3” value is 77% and 81%; the “LINE-1 methylation (%) CG Position 4” value is 86% and 88%. Further, the “LINE-1 methylation (%) CG Position 5” value in series [1] (ML-2, 48 hours) is 56% and 64%. Further, in series [1] (ML-2, 10 days), the “LINE-1 methylation (%) CG Position 1” value was 61% and 57%; the “LINE-1 methylation (%) CG Position 2” value was 48% and 46%; the “LINE-1 methylation (%) CG Position 3” value was 66% and 62%; the “LINE-1 methylation (%) CG Position 4” value is 64% and 60%. Further, the “LINE-1 methylation (%) CG Position 5” value in series [1] (ML-2, 10 days) was 46% and 44%. In addition, in series [2], the “5mC level (dot blot)” value is recorded as “no changes”. Further, in series [3], the “DNA damage (γ-H2AX)” value was “do not induced DNA damage”. In addition, the fraction unbound at 4 h, 2 µM in series [4] amounted to 0.011 ± 0.001.

By IC50 is commonly meant the concentration at which inhibition is half-maximal. Low readings indicate higher potency, high ones lower potency. The inhibition is the drop in the measured response relative to a control, in per cent. Low readings indicate little suppression, high ones strong suppression. Broadly, the fraction unbound is free concentration divided by total concentration.
